What follows are compounds tested against T1, purified human Factor XIa (Homo sapiens, UniProt P03951) (assay: Factor XIa Assay (hydrolysis of fluorogenic substrate Z-Gly-Pro-Arg-AFC)). Conditions: purified human Factor XIa 40 pM; Z-Gly-Pro-Arg-AFC 100 μM; 50 mM HEPES pH 7.4; read-out: Factor XIa Inhibition (IC50 (nM)).
T1 construct: Determinations were made using purified human Factor XIa; purchased Sekisui Diagnostics
Format: biochemical
Description: The effectiveness of compounds of the present invention as inhibitors of Coagulation Factor XIa can be determined using a relevant purified serine protease, and an appropriate synthetic substrate. The rate of hydrolysis of the chromogenic or fluorogenic substrate by the relevant serine protease was measured both in the absence and presence of compounds of the present invention. Assays were conducted at room temperature or at 37° C. […] A decrease in the rate of fluorescence change in the presence of inhibitor is indicative of enzyme inhibition. Such methods are known to one skilled in the art. […]
Factor XIa determinations were made in 50 mM HEPES buffer at pH 7.4 containing 150 mM NaCl, 5 mM CaCl2, and 0.1% PEG 8000 (polyethylene glycol; JT Baker or Fisher Scientific). Determinations were made using purified human Factor XIa at a final concentration of 40 pM (Sekisui Diagnostics) and the synthetic substrate, Z-Gly-Pro-Arg-AFC, TFA salt (Sigma #C0980) at a concentration of 100 μM.
Times required to achieve equilibration between enzyme and inhibitor were determined in control experiments. Initial velocities of product formation in the absence (Vo) or presence of inhibitor (Vi) were measured. Assuming competitive inhibition, and that unity is negligible compared Km/[S], [I]/e, and [I]/e (where [S], [I], and e respectively represent the total concentrations, of substrate, inhibitor and enzyme), the equilibrium constant (Ki) for dissociation of the inhibitor from the enzyme can be obtained from the dependence of Vo/Vi on [I] shown in the following equation.

T1 sequence (P03951 388-625 limits assumed): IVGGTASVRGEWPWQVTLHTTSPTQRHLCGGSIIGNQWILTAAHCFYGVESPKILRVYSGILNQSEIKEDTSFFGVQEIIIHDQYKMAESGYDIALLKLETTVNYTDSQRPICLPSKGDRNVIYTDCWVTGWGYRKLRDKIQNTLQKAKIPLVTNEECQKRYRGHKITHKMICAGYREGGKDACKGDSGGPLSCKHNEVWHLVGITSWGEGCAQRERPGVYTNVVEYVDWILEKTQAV
T1 sequence (P03951 19-387 partner limits assumed): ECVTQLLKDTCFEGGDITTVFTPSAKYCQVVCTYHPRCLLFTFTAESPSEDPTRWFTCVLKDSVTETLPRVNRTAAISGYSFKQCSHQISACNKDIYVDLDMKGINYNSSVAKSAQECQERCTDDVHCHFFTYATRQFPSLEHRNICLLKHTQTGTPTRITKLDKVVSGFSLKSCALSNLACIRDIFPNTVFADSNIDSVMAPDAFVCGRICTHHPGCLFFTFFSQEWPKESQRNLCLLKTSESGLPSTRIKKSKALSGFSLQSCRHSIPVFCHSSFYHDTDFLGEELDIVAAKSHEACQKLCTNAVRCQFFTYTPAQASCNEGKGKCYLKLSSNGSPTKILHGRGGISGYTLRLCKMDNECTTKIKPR

IC50 [nM] | Compound
128 | COC(=O)Nc1ccc(-c2cnc(C3C(c4ccc(F)cc4)CC(N4CCC(N)CC4)CN3C(=O)/C=C/c3c(C(F)(F)F)ccc(Cl)c3F)[nH]2)cc1 (stereo not shown) [Example 20, methyl (4-{2-[4-amino-1′-{(2E)-3-[3-chloro-2-fluoro-6-(trifluoromethyl)phenyl]prop-2-enoyl}-5′-(4-fluorophenyl)-1,3′-bipiperidin-6′-yl]-1H-imidazol-5-yl}phenyl)carbamate]
656 | COC(=O)Nc1ccc(-c2c[nH]c([C@@H]3[C@H](C4CC4)C[C@H](C4CCNCC4)CN3C(=O)/C=C/c3cc(Cl)ccc3-n3cnnn3)n2)cc1 (single isomer, unassigned) [Example 26]
105 | CC1CC(N2CCC(N)CC2)CN(C(=O)/C=C/c2cc(Cl)ccc2-n2cnnn2)C1C(=O)Nc1ccc(C(=O)O)cc1 (stereo not shown) [Example 5, 4-{[(4-amino-1′-{(2E)-3-[5-chloro-2-(1H-tetrazol-1-yl)phenyl]prop-2-enoyl}-5′-methyl-1,3′-bipiperidin-6′-yl)carbonyl]amino}benzoic acid]
27.2 | CC(C)C1CC(N2CCC(N)CC2)CN(C(=O)/C=C/c2cc(Cl)ccc2-n2cnnn2)C1C(=O)Nc1ccc(C(=O)O)cc1 (stereo not shown) [Example 3, 4-({[4-amino-1′-{(2E)-3-[5-chloro-2-(1H-tetrazol-1-yl)phenyl]prop-2-enoyl}-5′-(1-methylethyl)-1,3′-bipiperidin-6′-yl]carbonyl}amino)benzoic acid]
6.1 | O=C(O)c1ccc(NC(=O)[C@@H]2[C@H](C3CCCCC3)C[C@H](OC3CCNCC3)CN2C(=O)/C=C/c2cc(Cl)ccc2-n2cnnn2)cc1 (racemic) [Example 11]
2.2 | NC1CCN(C2CC(C3CC3)C(C(=O)Nc3ccc(C(=O)O)cc3)N(C(=O)/C=C/c3cc(Cl)ccc3-n3cnnn3)C2)CC1 (stereo not shown) [Example 4, 4-{[(4-amino-1′-{(2E)-3-[5-chloro-2-(1H-tetrazol-1-yl)phenyl]prop-2-enoyl}-5′-cyclopropyl-1,3′-bipiperidin-6′-yl)carbonyl]amino}benzoic acid]
16.5 | N#Cc1ccc(-c2cnc(C3C(c4ccc(F)cc4)CC(N4CCC(N)CC4)CN3C(=O)/C=C/c3cc(Cl)ccc3-n3cnnn3)[nH]2)cc1 (stereo not shown) [Example 18, 4-{2-[4-amino-1′-{(2E)-3-[5-chloro-2-(1H-tetrazol-1-yl)phenyl]prop-2-enoyl}-5′-(4-fluorophenyl)-1,3′-bipiperidin-6′-yl]-1H-imidazol-5-yl}benzonitrile]

Reference: US10239863B2, “Factor XIa inhibitors” (Merck Sharp & Dohme Corp., priority 2013, dated 2019)
